Source: patent US6548488B2, “Composition comprising camptothecin or a camptothecin derivative and an alkylating agent for the treatment of cancer” (priority 2000, dated 2003)
Like-named read-outs stand apart in the source and are kept apart here. Marks after values point to notes of the source that are not given here.

Columns and labels:
P388 = format: in vivo, mice; settings: for %ILS: highest non-toxic dose
P388/CPT = assay: Chemosensitivity of camptothecin-resistant i.p. P388/CPT leukemia, increase in life span; format: in vivo, mice; settings: for Comment: response of P388/CPT
Method: Cross-resistance was measured in murine leukemia cell lines. P388/CPT is a camptothecin-resistant leukemia that was established in vitro (Biochem. Pharmacol., 45: 339 (1993) and maintained in vivo by i.p. passages in DBA2 female mice. The chemosensitivity of i.p. P388/CPT was evaluated with i.v. P388 sensitive reference drugs with different mechanisms of action. Antitumor efficacy was determined at the highest non-toxic dose as percent increase in life span (ILS), where:
ILS=100×[(median day of death (MDD) of treated mice)−(MDD control mice)]÷(MDD control mice)
A minimal level of activity equals an ILS of greater than 26%. […] Table III tabulates the results from this study.

[1] = system: mammary adenocarcinoma MA16/C/sp
Method: (§1) This efficacy may be quantified, for example by the log10 cell kill, which is determined by the following formula:
(§2) log10 cell kill=T-C(days)/3.32×Td
(§3) in which T-C represents the time taken for the cells to grow, which is the mean time in days for the tumors of the treated group (T) to reach a predetermined value (1 g for example) and the tumors of the control group (C) to reach the same value, and Td represents the time in days needed for the volume of the tumor in the control group to double (T. H. Corbett et al., Cancer, 40: 2660-2680 (1977); F. M. Schabel et al., Cancer Drug Development, Part B, Methods in Cancer Research, 17: 3-51, New York, Academic Press Inc. (1979)). A product is considered to be active if the log10 cell kill is greater than or equal to 0.7. A product is considered to be very active if the log10 cell kill is greater than 2.8.
The effect of the combination of CPT-11 and cyclophosphamide was evaluated in a three arn study in mice bearing mammary adenocarcinoma MA16/C/sp. In the first arm, four dose levels of CPT-11 were given orally on days three through seven. In the second arm, five dose levels of cyclophosphamide were given intravenously on days three, five and seven. In the combination third arm, eight dosage levels of CPT-11 were administered orally on days three through seven, with administration of eight dosage levels of cyclophosphamide intravenously on days three, five and seven. This third arm illustrated an example of semi-simultaneous administration.

MA16/C, sc = system: MA16/C, sc
Method: as §1, §2, §3
The effectiveness of irinotecan combination chemotherapy methods were tested in a dose response study in a murine tumor model. Three arms were evaluated for tolerance and efficacy. Tolerance was measured by mortality, body weight loss at nadir, host recovery time, and combination toxicity index. Efficacy end points for solid tumor models were tumor growth delay (T/C), log10 cell kill (LCK, defined above), tumor regressions (i.e., complete remission (CR),or partial remission (PR)). For non-solid tumors, such as leukemia, efficacy was measured as the increase in life span (ILS).
Combination toxicity index (CTI) was calculated as the sum of the fraction of LD10's for each agent used in each combination (Cancer Treatment Reports, 66(5): 1187-1200 (1982)). The LD10 for the single agent was obtained by plotting the toxicity of that agent and the dosage in mg/kg as a log probit graph. Subsequently, the CTI LD10 was obtained by plotting as a log probit graph the observed lethality and the corresponding CTI calculated as the sum of the fraction of the LD10 of each single agent. When the CTI equals one, only 50% of the LD10's of each agent can be used in combination without additional toxicity, and when the CTI equals two, 100% of the LD10's of each agent can be used in combination without additional toxicity.

C26 = assay: Oral vs i.v. irinotecan, C26 tumor in BALB/c mice; format: in vivo; settings: for LCK: optimal total dose
Method: as §2
(§4) Three arms were evaluated for tolerance and efficacy.
(§5) The optimal total dose for oral and intravenous administration routes for irinotecan alone in various murine models is indicated in Table II.

[2] = Tolerance of oral vs i.v. irinotecan in tumor bearing mice; format: in vivo; settings: both methods of administration (oral and i.v.)
Method: as §4

P03 = assay: Oral vs i.v. irinotecan, P03 tumor in B6D2F1 mice; format: in vivo; settings: twice daily; for LCK: optimal total dose
Method: as §2, §4, §5

C51 = assay: Oral vs i.v. irinotecan, C51 tumor in BALB/c mice; format: in vivo; settings: days 5, 7, 9, 13, 15, twice daily; for LCK: optimal total dose
Method: as §2, §4, §5

GOS = assay: Oral vs i.v. irinotecan, GOS tumor in B6D2F1 mice; format: in vivo; settings: for LCK: optimal total dose
Method: as §2, §4, §5

MA16/C = assay: Oral vs i.v. irinotecan, MA16/C tumor in C3H/HeN mice; format: in vivo; settings: for Optimal Total Dose: days 5-9; for LCK: days 5-9, optimal total dose
Method: as §2, §4, §5

[3] = CPA i.v. 37.0 mg/kg/adm, days 3, 5, 7
[4] = CPA i.v. 60.0 mg/kg/adm, days 3, 5, 7
[5] = CPA i.v. 97.0 mg/kg/adm, days 3, 5, 7 (HNTD)
[6] = CPA i.v. 156.0 mg/kg/adm, days 3, 5, 7
[7] = CPT-11 p.o. 25.0 mg/kg/adm, days 3-7
[8] = CPT-11 p.o. 40.0 mg/kg/adm, days 3-7 (HNTD)

With CC[C@@]1(O)C(=O)OCc2c1cc1n(c2=O)Cc2cc3ccccc3nc2-1 [CPT, camptothecin] the “%ILS” value (P388; sc) was 82%, the “%ILS” value (P388/CPT; sc, highest non-toxic dose) was 0% and the Comment (P388/CPT; sc) was “resistant”.

For O=P1(N(CCCl)CCCl)NCCCO1 (centres unmarked) [CPA, cyclophosphamide], the Comments ([1]; CPA i.v. 23.0 mg/kg/adm, days 3, 5, 7) was “Inactive”, the Comments [1, 3] was “Active” and the Log10 cell kill [1, 3] was 1.0. For the same compound, the “T-C” value [1, 3] was 3.8 days, the “Time for median tumor to reach 750 mg” value [1, 3] was 12.0 days and the Comments [1, 4] was “Active”. The Log10 cell kill [1, 4] was 1.9, the “T-C” value [1, 4] was 6.9 days and the “Time for median tumor to reach 750 mg” value [1, 4] was 15.1 days. For the same compound, the Comments ([1]; CPA i.v. 97.0 mg/kg/adm, days 3, 5, 7) was “HNTD Highly Active”, the Log10 cell kill [1, 5] was 2.8 and the “T-C” value [1, 5] was 10.3 days. The “Time for median tumor to reach 750 mg” value [1, 5] was 18.5 days, the Comments [1, 6] was “Toxic” and the Log10 cell kill [1, 6] was “NTBA”. For the same compound, the “T-C (days)” value [1, 6] was “NTBA”, the “Time for median tumor to reach 750 mg in days” value [1, 6] was “NTBA” and the “HNTD Dose” value (MA16/C, sc; cyclophosphamide, i.v. alone, days 3, 5, 7) was 291 mg/kg. The LCK (MA16/C, sc; cyclophosphamide, i.v. alone, days 3, 5, 7, at HNTD) was 2.8, the “sensitivity of the camptothecin sensitive cell line” value (P388; i.v.) was “very sensitive” and the “%ILS” value (P388; i.v.) was 245%. For the same compound, the “%ILS” value (P388/CPT; i.v., highest non-toxic dose) was 153%, the TFS (P388/CPT; i.v., highest non-toxic dose) was 1/5 and the Comment (P388/CPT; i.v., listed as Cyclophosphamide) was “sensitive”. The Comment (P388/CPT; i.v., listed as cyclophosphamide) was “very sensitive”.

With CCc1c2c(nc3ccc(OC(=O)N4CCC(N5CCCCC5)CC4)cc13)-c1cc3c(c(=O)n1C2)COC(=O)[C@]3(O)CC [CPT-11, irinotecan] the Comments [1, 7] was “Active”, the Log10 cell kill [1, 7] was 1.1 and the “T-C” value [1, 7] was 4.1 days. For the same compound, the “Time for median tumor to reach 750 mg” value [1, 7] was 12.3 days, the Comments ([1]; CPT-11 p.o. 40.0 mg/kg/adm, days 3-7) was “HNTD Active” and the Log10 cell kill [1, 8] was 2.0. For the same compound, the “T-C” value [1, 8] was 7.3 days, the “Time for median tumor to reach 750 mg” value [1, 8] was 15.5 days and the Comments ([1]; CPT-11 p.o. 64.0 mg/kg/adm, days 3-7) was “Toxic”. For the same compound, the Comments ([1]; mouse, in vivo, po, 103 mg/kg) was “Toxic”, the “HNTD Dose” value (MA16/C, sc; CPT-11, i.v. alone, days 3-7) was 200 mg/kg and the LCK (MA16/C, sc; CPT-11, i.v. alone, days 3-7, at HNTD) was 2.0. The “Optimal Total Dose” value (C26; i.v., twice daily) was 228 mg/kg, the LCK (C26; i.v., twice daily) was 0.7 and the “Optimal Total Dose” value (C26; oral, days 3-7, twice daily) was 558 mg/kg. The LCK (C26; oral, days 3-7, twice daily) was 0.9, the body weight loss [2] was 8.5% and the nadir [2] was 7 days post last administration. The “Optimal Total Dose” value (P03; i.v.) was 346.2 mg/kg, the LCK (P03; i.v.) was 3.2† and the “Optimal Total Dose” value (P03; oral) was 900 mg/kg. The LCK (P03; oral) was 3.4†, the “Optimal Total Dose” value (C51; i.v.) was 615 mg/kg and the LCK (C51; i.v.) was 3.0. For the same compound, the “Optimal Total Dose” value (C51; oral) was 845 mg/kg, the LCK (C51; oral) was 2.5 and the “%ILS” value (P388; i.v.) was 91%. The “Optimal Total Dose” value (GOS; i.v., days 3, 5, 7 twice daily) was 346.2 mg/kg, the LCK (GOS; i.v., days 3, 5, 7 twice daily) was 2.2 and the “Optimal Total Dose” value (GOS; oral, days 3-7, twice daily) was 900 mg/kg. For the same compound, the LCK (GOS; oral, days 3-7, twice daily) was 2.1, the “Optimal Total Dose” value (MA16/C; i.v.) was 130.5 mg/kg and the LCK (MA16/C; i.v.) was 2.6. The “Optimal Total Dose” value (MA16/C; oral) was 230.5 mg/kg, the LCK (MA16/C; oral) was 2.7 and the “%ILS” value (P388/CPT; i.v., highest non-toxic dose) was 0%. For the same compound, the Comment (P388/CPT; i.v.) was “resistant”.
